Results published in patent US20110105599A1, “THERAPEUTIC OR PREVENTIVE AGENTS FOR ISCHEMIC NEUROPATHY” (Dainippon Sumitomo Pharma Co., Ltd., priority 2003, published 2011).
“Also recorded” adds a separate entry of the source. Values belong to the molecule of their own block, whether it stands above or below them.

Experiments:
[1] = system: increased intra ocular pressure model (retina of SD rats); assay: Pharmacological effect on an increased intra ocular pressure model (retinal layer thickness); assay type: in vivo, rat; conditions: for thickness of outer nuclear layer (ONL), Average / thickness of inner nuclear layer (INL), Average / thickness of inner plexus layer (IPL), Average: 5 μl of 0.1 mg/ml to the vitreous body; for cell death of inner granular cells due to increased intra ocular pressure (in words): overall conclusion of the example; for decrease of the thickness of the inner granular cell layer (INL) due to increased intra ocular pressure (in words) / decrease of the thickness of the inner plexus layer (IPL) due to increased intra ocular pressure (in words): compared to IOP increase load + PBS group, Student's t-test; for influence of administration on the outer nuclear layer (in words): rats with IOP increase load, pre- or post-administration to the vitreous body
Source text: The retinal nerve consists of the extraretinal granular layer, granule cells in the retina and the gangliocyte layer, and granule cells in the retina and the gangliocyte layer receive blood supply from the central retinal artery. When pressure is imposed on the anterior chamber, a load is imposed on the cribrosa lamina which is not covered with the sclera and the central retinal artery which extends through this area is occluded, and as a result, granule cells in the retina and the gangliocyte layer becomes ischemic, and cell death occurs.
The damage of granule cells in the retina can be readily evaluated as “the thickness of the inner nuclear layer (INL)” representing the change in number of the cells. Since the inner plexus layer, synapses between each neurons, is also damaged by the increase in the intra ocular pressure and made thinner, the thickness of the inner plexus layer (IPL) becomes an indicator to show the degree of damage. Therapeutic or preventive agents for retinal neuropathy having a suppressive effect have been explored using these two parameters as indices.
20 SD rats (6-week old) were used and divided into the following groups. • Sham operation (sometimes abbreviated as Sham ope hereinbelow): Five rats (Of these, 4 rats were used for analysis) • IOP (Intra Ocular pressure) treatment+PBS (5 μl was administered to the vitreous body): Five rats (Of these, 4 rats were used for analysis) • IOP (Intra Ocular pressure) treatment+test compound (5 μl was pre-administered to the vitreous body): Five rats (Of these, 4 rats were used for analysis) • IOP (Intra Ocular pressure) treatment+test compound (5 μl was post-administered to the vitreous body): Five rats (Of these, 4 rats were used for analysis) • (2) Increase in Intra Ocular Pressure
By the following steps, increased intra ocular pressure model animals were prepared and a drug (test compound) was administered thereto.
(i) A rat was set to a brain stereotaxic apparatus under anesthesia with […].
(ii) The head of the rat was fixed and an eyeball was pricked with a 26-G needle attached to the tip of a tube, which was connected to a sphygmomanometry device, into the rat anterior chamber and a load was imposed so that the inner pressure of the anterior chamber was 140 to 160 mmHg.
(iii) As for the timing of the administration of a drug into the vitreous body, the drug was administered 15 minutes before the intra ocular pressure increasing load for pre-administration, while the drug was administered 15 minutes after the intra ocular pressure increasing load for post-administration.
(iv) Increase in intra ocular pressure was maintained for one hour, and the rat was relieved from the brain anchor after the intra ocular pressure loading and ordinarily bred for one week.
(v) After sacrificed by suffocation with carbon dioxide, eyeballs were removed.
(vi) A paraffin section of the retina was prepared and dyed with 0.5% cresyl violet.
(vii) A histological image at a position 880 μm from the optic papilla (upper part of the retina) was photographed and the thicknesses of the outer nuclear layer (ONL), inner nuclear layer (INL) and inner plexus layer (IPL) were measured. • (3) Preparation of a Drug and Administration Method
SPF-3059-1 as a test substance was dissolved in PBS to a concentration of 1 mg/ml and further diluted with PBS to 0.1 mg/ml immediately before use. 5 μl of the diluted solution was administered to the vitreous body of the left eye of a rat with a 30G double needle. • (4) Significance Test
Intra ocular pressure was increased by the method of above (2) and significance tests were conducted by Student's t-test and Welch & F-test on the retinal protection effect of SPF-3059-1 administration in rats to which PBS was administered to the vitreous body.
Each of the thickness of outer nuclear layer, inner nuclear layer and inner plexus layer was measured using the retina of the rats in each treatment group, and a cytoprotective effect was evaluated. […]

[2] = Solubility (physico-chemical properties of the prepared compound); assay type: physicochemical
Source text: Each compound of the present invention is a known compound and is disclosed by WO02/09756 or WO03/062243 and can be produced from SPF-3059 strain which is a fungus belonging to the genus Penicillium. Production process and physico-chemical properties are described in the above international publication pamphlets. Specifically, the following compounds were respectively prepared. • (Compound SPF-3059-1) • Appearance: Yellow powder • High resolution fast atom bombardment mass spectrum • (HRFAB-MS) m/z (M+H)^+: • Observed value: 579.0772 • Calculated value: 579.0776 • Molecular formula: C28H18O14 • Ultraviolet visible absorption spectrum λ max (in methanol) nm(ε): […]

[3] = system: increased intra ocular pressure model (retina of SD rats); assay: Pharmacological effect on an increased intra ocular pressure model (retinal layer thickness); assay type: in vivo, rat; conditions: Example 2, 7-week old SD rats, 5 μl of 0.1 mg/ml to the vitreous body
cultured nerve cells = conditions: in a short period of time; as low as; cited from earlier work
[4] = Example 1, 6-week old SD rats, IOP increase load + test substance post-administration, one week after load
[5] = Example 1, 6-week old SD rats, IOP increase load + test substance pre-administration, one week after load
[6] = IOP increase load + test substance pre-administration
[7] = Example 2, 7-week old SD rats, IOP increase load + test substance post-administration

Molecule: CC(=O)c1c(C)c(C(=O)C2COc3cc(O)c(O)c(C(=O)O)c3C2=O)cc2c(=O)c3c(C(=O)O)c(O)c(O)cc3oc12 (centres unmarked) [SPF-3059-1]
thickness of outer nuclear layer (ONL), Average ([1]; Example 1, 6-week old SD rats, IOP increase load + test substance post-administration (15 minutes after load), one week after load): 45.56 μm
thickness of inner nuclear layer (INL), Average [1, 4]: 27.89 μm
thickness of inner plexus layer (IPL), Average [1, 4]: 40.45 μm
thickness of outer nuclear layer (ONL), Average ([1]; Example 1, 6-week old SD rats, IOP increase load + test substance pre-administration (15 minutes before load), one week after load): 45.79 μm
thickness of inner nuclear layer (INL), Average [1, 5]: 29.56 μm
thickness of inner plexus layer (IPL), Average [1, 5]: 46.89 μm
cell death of inner granular cells due to increased intra ocular pressure (in words) [1]: suppressed
decrease of the thickness of the inner granular cell layer (INL) due to increased intra ocular pressure (in words) ([1]; post-administration): tends to be suppressed; also recorded: suppressing tendency
decrease of the thickness of the inner plexus layer (IPL) due to increased intra ocular pressure (in words) ([1]; post-administration): tends to be suppressed; also recorded: suppressing tendency
decrease of the thickness of the inner granular cell layer (INL) due to increased intra ocular pressure (in words) ([1]; pre-administration): suppressed significantly; also recorded: suppressing effect
decrease of the thickness of the inner plexus layer (IPL) due to increased intra ocular pressure (in words) ([1]; pre-administration): suppressed significantly; also recorded: suppressing effect
influence of administration on the outer nuclear layer (in words) [1]: does not have an influence

Solubility ([2]; in DMSO): soluble
Solubility ([2]; in hexane): Insoluble
Solubility ([2]; in methanol): soluble
Solubility ([2]; in water): Insoluble
Molecule: CC(=O)c1cc2c(=O)c3c(C(=O)O)c(O)c(O)cc3oc2c(C(C)=O)c1-c1coc2cc(O)c(O)cc2c1=O [SPF-3059-24]

Molecule: CC(=O)c1cc2c(=O)c3c(C(=O)O)c(O)c(O)cc3oc2c(C(C)=O)c1-c1coc2cc(O)c(O)c(C(=O)O)c2c1=O [SPF-3059-5]
thickness of outer nuclear layer (ONL), Average ([3]; IOP increase load + test substance post-administration): 61.76 μm
thickness of inner nuclear layer (INL), Average [3, 6]: 33.09 μm
thickness of inner plexus layer (IPL), Average [3, 6]: 55.88 μm
thickness of outer nuclear layer (ONL), Average [3, 6]: 60.29 μm
thickness of inner nuclear layer (INL), Average [1, 7]: 36.76 μm
thickness of inner plexus layer (IPL), Average [1, 7]: 55.15 μm
cell death of inner granular cells due to increased intra ocular pressure (in words) [1]: suppressed
decrease of the thickness of the inner granular cell layer (INL) due to increased intra ocular pressure (in words) ([1]; post-administration): shown statistically significantly
decrease of the thickness of the inner plexus layer (IPL) due to increased intra ocular pressure (in words) ([1]; post-administration): suppressed significantly
decrease of the thickness of the inner granular cell layer (INL) due to increased intra ocular pressure (in words) ([1]; pre-administration): tends to be suppressed; also recorded: suppressing tendency
decrease of the thickness of the inner plexus layer (IPL) due to increased intra ocular pressure (in words) ([1]; pre-administration): suppressed significantly; also recorded: suppressing effect
influence of administration on the outer nuclear layer (in words) [1]: does not have an influence

B1: semaphorin 3A: endogenous protein which collapses the nerve growth cone and suppresses axon elongation (protein, UniProt Q14563 21-771, looked up)
Semaphorin-3A: NYQNGKNNVPRLKLSYKEMLESNNVITFNGLANSSSYHTFLLDEERSRLYVGAKDHIFSFDLVNIKDFQKIVWPVSYTRRDECKWAGKDILKECANFIKVLKAYNQTHLYACGTGAFHPICTYIEIGHHPEDNIFKLENSHFENGRGKSPYDPKLLTASLLIDGELYSGTAADFMGRDFAIFRTLGHHHPIRTEQHDSRWLNDPKFISAHLISESDNPEDDKVYFFFRENAIDGEHSGKATHARIGQICKNDFGGHRSLVNKWTTFLKARLICSVPGPNGIDTHFDELQDVFLMNFKDPKNPVVYGVFTTSSNIFKGSAVCMYSMSDVRRVFLGPYAHRDGPNYQWVPYQGRVPYPRPGTCPSKTFGGFDSTKDLPDDVITFARSHPAMYNPVFPMNNRPIVIKTDVNYQFTQIVVDRVDAEDGQYDVMFIGTDVGTVLKVVSIPKETWYDLEEVLLEEMTVFREPTAISAMELSTKQQQLYIGSTAGVAQLPLHRCDIYGKACAECCLARDPYCAWDGSACSRYFPTAKRRTRRQDIRNGDPLTHCSDLHHDNHHGHSPEERIIYGVENSSTFLECSPKSQRALVYWQFQRRNEERKEEIRVDDHIIRTDQGLLLRSLQQKDSGNYLCHAVEHGFIQTLLKVTLEVIDTEHLEELLHKDDDGDGSKTKEMSNSMTPSQKVWYRDFMQLINHPNLNTMDEFCEQVWKRDRKQRRQRPGHTPGNSNKWKHLQENKKGRNRRTHEFERAPRSV
concentration inducing growth cone collapse of the cultured nerve cells (cultured nerve cells): 10 pM
